In patent US12162893B2 (Erasca, Inc., priority 2020, dated 2024):

Target: T1, mutant G12C K-RAS (Homo sapiens, UniProt P01116, G12C)
T1 construct: made in house; host or cells: E. coli BL21
Assay: covalent adduct formation (CAF) with mutant G12C K-RAS
Format: binding
Details: Table 6; 10 μM, 1 h
Experimental: Embodiments disclosed herein are further illustrated by the following examples in Tables 1-4 and the Examples hereinbelow. The Tables indicate the compound number, structure, the observed mass spectral molecular weight peak, and covalent adduct formation (CAF) with a mutant G12C K-RAS after 60 minutes at a concentration of 10 micromolar.

| SMILES | % CAF @ 10 μM,1 h [%] |
| --- | --- |
| C=CC(=O)N1C[C@H](C)N(c2nc(=O)n3c4c(c(-c5ccc(F)cc5F)c(Cl)cc24)OC[C@H]3CC2CCN(CC)CC2)C[C@H]1C [Example 333, (3R)-7-((2S,5R)-4-acryloyl-2,5-dimethylpiperazin-1-yl)-9-chloro-10-(2,4-difluorophenyl)-3-((1-ethylpiperidin-4-yl)methyl)-2H-[1,4]oxazino[2,3,4-ij]quinazolin-5(3H)-one] | 83.9 |
| C=CC(=O)N1C[C@H](C)N(c2nc(=O)n3c4c(c(-c5ccc(F)cc5F)c(Cl)cc24)OC[C@H]3CCCN2CC[C@H](OC)C2)C[C@H]1C [Example 334, (3R)-7-((2S,5R)-4-acryloyl-2,5-dimethylpiperazin-1-yl)-9-chloro-10-(2,4-difluorophenyl)-3-(3-((S)-3-methoxypyrrolidin-1-yl)propyl)-2,3-dihydro-5H-[1,4]oxazino[2,3,4-ij]quinazolin-5-one] | 84.6 |
| C=CC(=O)N1C[C@H](C)N(c2nc(=O)n3c4c(c(-c5ccc(F)cc5F)c(Cl)cc24)OC[C@H]3CO[C@H]2CCN(C)C2)C[C@H]1C [Example 335, (3R)-7-((2S,5R)-4-acryloyl-2,5-dimethylpiperazin-1-yl)-9-chloro-10-(2,4-difluorophenyl)-3-((((S)-1-methylpyrrolidin-3-yl)oxy)methyl)-2H-[1,4]oxazino[2,3,4-ij]quinazolin-5(3H)-one] | 54.6 |
| C=CC(=O)N1C2CC(=O)CC1CN(c1nc(=O)n3c4c(c(-c5ccc(F)cc5F)c(C(F)(F)F)cc14)OCC3)C2 [Example 337, 7-(9-acryloyl-7-oxo-3,9-diazabicyclo[3.3.1]nonan-3-yl)-10-(2,4-difluorophenyl)-9-(trifluoromethyl)-2,3-dihydro-5H-[1,4]oxazino[2,3,4-ij]quinazolin-5-one] | 95.9 |
